Test results taken from ChEMBL document CHEMBL1153852, “Steroidal lactones as inhibitors of 17beta-hydroxysteroid dehydrogenase type 5: chemical synthesis, enzyme inhibitory activity, and assessment of estrogenic and androgenic activities” (Eur J Med Chem, 2009).

Columns and labels:
[1] = biological target: T1, Estrogen receptor (Rattus norvegicus) (UniProt P06211); experiment: Binding affinity to rat uterus estrogen receptor at 0.1 uM
T1 sequence (whole entry): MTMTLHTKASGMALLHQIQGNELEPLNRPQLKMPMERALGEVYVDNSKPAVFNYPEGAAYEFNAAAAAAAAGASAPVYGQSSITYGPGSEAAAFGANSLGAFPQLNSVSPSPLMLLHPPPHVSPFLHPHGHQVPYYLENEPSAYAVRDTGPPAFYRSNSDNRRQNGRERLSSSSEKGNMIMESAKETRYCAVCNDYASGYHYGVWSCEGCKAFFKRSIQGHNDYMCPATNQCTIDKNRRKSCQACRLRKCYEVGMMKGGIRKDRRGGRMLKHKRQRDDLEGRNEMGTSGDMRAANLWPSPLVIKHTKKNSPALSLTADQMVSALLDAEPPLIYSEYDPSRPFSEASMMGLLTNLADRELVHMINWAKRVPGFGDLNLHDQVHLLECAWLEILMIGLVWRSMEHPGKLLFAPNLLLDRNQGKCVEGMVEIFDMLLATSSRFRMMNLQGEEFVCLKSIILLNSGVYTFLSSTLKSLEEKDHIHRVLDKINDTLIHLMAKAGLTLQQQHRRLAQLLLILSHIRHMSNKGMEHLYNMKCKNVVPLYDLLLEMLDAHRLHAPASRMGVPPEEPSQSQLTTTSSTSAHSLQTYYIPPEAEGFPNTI

[2] = biological target: T2, Androgen receptor (Rattus norvegicus) (UniProt P15207); experiment: Binding affinity to rat ventral prostate androgen receptor at 10 uM; type: tissue-based; details: Prostate gland
T2 sequence (whole entry): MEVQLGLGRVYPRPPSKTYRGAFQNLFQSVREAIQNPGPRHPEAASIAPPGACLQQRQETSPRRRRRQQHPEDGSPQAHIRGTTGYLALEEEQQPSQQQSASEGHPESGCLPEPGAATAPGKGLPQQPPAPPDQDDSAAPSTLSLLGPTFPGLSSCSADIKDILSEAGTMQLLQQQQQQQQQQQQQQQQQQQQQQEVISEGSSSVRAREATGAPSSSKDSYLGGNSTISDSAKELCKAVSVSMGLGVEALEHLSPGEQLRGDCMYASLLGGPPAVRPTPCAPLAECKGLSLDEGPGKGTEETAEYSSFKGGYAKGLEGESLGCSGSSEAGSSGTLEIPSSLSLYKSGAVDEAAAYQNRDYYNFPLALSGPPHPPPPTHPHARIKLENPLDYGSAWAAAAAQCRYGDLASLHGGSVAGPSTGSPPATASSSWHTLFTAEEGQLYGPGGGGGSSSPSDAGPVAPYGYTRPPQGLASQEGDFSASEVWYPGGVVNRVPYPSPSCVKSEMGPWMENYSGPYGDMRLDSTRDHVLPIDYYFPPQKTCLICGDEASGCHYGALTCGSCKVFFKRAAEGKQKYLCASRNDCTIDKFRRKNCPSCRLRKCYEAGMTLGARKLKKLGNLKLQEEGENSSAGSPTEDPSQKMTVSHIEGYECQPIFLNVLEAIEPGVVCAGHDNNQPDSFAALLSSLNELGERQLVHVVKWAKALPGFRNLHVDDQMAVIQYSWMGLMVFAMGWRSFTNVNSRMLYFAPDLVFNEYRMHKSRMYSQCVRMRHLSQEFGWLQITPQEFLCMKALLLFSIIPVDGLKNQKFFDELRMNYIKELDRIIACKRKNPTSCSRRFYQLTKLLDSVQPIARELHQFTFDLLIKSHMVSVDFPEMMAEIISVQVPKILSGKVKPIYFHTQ

[3] = biological target: T3, Progesterone receptor (Rattus norvegicus) (UniProt Q63449); experiment: Binding affinity to rat uterus progesterone receptor at 10 uM
T3 sequence (whole entry): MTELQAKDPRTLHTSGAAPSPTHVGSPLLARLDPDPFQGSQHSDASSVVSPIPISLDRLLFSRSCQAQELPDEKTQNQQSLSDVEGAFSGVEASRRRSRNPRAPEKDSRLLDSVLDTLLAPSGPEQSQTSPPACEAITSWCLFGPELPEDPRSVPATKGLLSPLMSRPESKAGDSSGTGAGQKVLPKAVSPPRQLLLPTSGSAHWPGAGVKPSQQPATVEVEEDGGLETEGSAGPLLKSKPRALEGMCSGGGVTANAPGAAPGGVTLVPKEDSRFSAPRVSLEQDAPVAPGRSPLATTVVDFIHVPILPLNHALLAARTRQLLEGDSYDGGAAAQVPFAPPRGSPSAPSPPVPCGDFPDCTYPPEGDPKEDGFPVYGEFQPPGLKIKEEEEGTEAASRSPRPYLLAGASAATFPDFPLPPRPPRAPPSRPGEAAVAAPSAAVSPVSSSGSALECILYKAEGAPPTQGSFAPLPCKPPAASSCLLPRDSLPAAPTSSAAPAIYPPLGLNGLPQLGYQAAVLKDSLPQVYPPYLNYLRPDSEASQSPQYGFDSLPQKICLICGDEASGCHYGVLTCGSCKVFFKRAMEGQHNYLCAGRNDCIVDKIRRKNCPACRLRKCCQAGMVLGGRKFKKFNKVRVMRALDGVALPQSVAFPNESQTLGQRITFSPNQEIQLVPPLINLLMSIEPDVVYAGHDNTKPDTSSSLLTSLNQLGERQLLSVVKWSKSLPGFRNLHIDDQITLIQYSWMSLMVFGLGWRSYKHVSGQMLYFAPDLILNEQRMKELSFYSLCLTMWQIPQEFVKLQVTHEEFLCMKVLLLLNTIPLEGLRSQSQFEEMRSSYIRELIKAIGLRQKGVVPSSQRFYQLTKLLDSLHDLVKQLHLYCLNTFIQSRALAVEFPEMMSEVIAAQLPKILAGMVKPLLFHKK

[4] = biological target: T4, 17-beta-hydroxysteroid dehydrogenase type 3 (Homo sapiens) (UniProt P37058); experiment: Inhibition of human 17beta-HSD3 expressed in HEK293 cells assessed as enzyme-mediated transformation of [14C]-4-androstene-3,17-dione in to [14C]-testosterone at 1 uM; type: cell-based
T4 sequence (whole entry): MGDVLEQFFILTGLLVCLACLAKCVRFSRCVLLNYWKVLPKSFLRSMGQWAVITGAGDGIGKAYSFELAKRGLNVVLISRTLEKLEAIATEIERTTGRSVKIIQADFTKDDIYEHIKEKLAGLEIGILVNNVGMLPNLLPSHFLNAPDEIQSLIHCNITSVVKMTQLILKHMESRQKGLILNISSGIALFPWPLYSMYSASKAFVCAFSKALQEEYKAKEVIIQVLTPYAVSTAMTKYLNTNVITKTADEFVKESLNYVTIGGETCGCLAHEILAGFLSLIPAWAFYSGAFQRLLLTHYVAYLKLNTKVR

[5] = biological target: T3, Progesterone receptor (Rattus norvegicus); experiment: Binding affinity to rat uterus progesterone receptor at 0.01 uM
[6] = biological target: T1, Estrogen receptor (Rattus norvegicus); experiment: Binding affinity to rat uterus estrogen receptor at 1 uM

In the case of CC1(C)CC[C@@]2(CC[C@H]3[C@@H]4CCc5cc(O)ccc5[C@H]4CC[C@@]32C)OC1=O, the Activity [1] is reported as 10%, the Activity [2] is reported as 6% and the Activity [3] is reported as 35%.

In the case of CC1(C)CC[C@@]2(CC[C@H]3[C@@H]4CCc5ccccc5[C@H]4CC[C@@]32C)OC1=O, the inhibition [4] is reported as 64%, the Activity [5] is reported as 0% and the Activity [6] is reported as 0%.
